Source: patent publication US20060128737A1, “Androgen receptor agonists” (KAKEN PHARMACEUTICAL CO., LTD., priority 2003, published 2006)

Columns and labels:
[1] = tested on: orchiectomized (ORX) rats; assay: Test Example 2: effect on prostate, levator ani muscle and femoral bone mineral density in ORX rats (subcutaneous); format: in vivo, rat; conditions: for Femoral bone mineral density / Weight of levator ani muscle / Weight of prostate: 5 days a week, 4 weeks
Experimental: Testes were removed from 12-week-old male SD rats. Starting on the next day, the compound of Example 1 (3, 10, 30 mg/kg) or DHT (0.1, 1, 10 mg/kg) was subcutaneously administered once daily for four consecutive weeks on a 5-day-a-week basis. The Example compound and DHT were dissolved in dimethyl sulfoxide and diluted 10-fold with olive oil to prepare solutions with various concentrations for use in the test. In an ORX control group, dimethyl sulfoxide as diluted 10-fold with olive oil was used for the test. Rats which had been falsely operated on without orchiectomy were used as a sham control group. On the next day after final administration, the wet weights of the ventral prostate and levator ani muscle were measured and the right femoral bone mineral density was measured by DEXA (double energy X-ray absorption) to evaluate the in vivo efficacy of the compound of Example 1.

[2] = tested on: orchiectomized (ORX) rats; assay: Test Example 5: effect of oral administration on prostate, levator ani muscle and femoral bone mineral density in ORX rats; format: in vivo, rat
Experimental: Testes were removed from 12-week-old male SD rats. Starting on the next day, the compound of Example 1 (100 mg/10 ml/kg) was orally administered once daily for four consecutive weeks on a 5-day-a-week basis. As a positive control, testosterone propionate (TP) (10 mg/kg) was subcutaneously administered once daily on a continuous 5-day-a-week basis. The test compound was suspended in a 0.5% methyl cellulose solution used as a solvent whereas TP was dissolved in dimethyl sulfoxide and diluted 10-fold with olive oil for use in the test. In an ORX control group, dimethyl sulfoxide as diluted 10-fold with olive oil was used for the test. Rats which had been falsely operated on without orchiectomy were used as a sham control group. On the next day after final administration, the wet weights of the ventral prostate and levator ani muscle were measured and the right femoral bone mineral density was measured by DEXA (double energy X-ray absorption) to evaluate the in vivo efficacy of the compound of Example 1. The results are shown in Table 19 and in FIGS. 10 to 12.

[3] = target: T1, rat androgen receptors (rat AR) (Rattus norvegicus, UniProt P15207); assay: Test for competitive binding to rat androgen receptors (rat AR); conditions: RBA=100×(IC50 of hydroxyflutamide)/(IC50 of compound); 3H-testosterone, rat prostate AR fraction
T1 construct: from tissue; host or cells: prostate of orchiectomized 11-week-old male SD rats (cytosolic supernatant of homogenate)
T1 sequence (P15207 1-902): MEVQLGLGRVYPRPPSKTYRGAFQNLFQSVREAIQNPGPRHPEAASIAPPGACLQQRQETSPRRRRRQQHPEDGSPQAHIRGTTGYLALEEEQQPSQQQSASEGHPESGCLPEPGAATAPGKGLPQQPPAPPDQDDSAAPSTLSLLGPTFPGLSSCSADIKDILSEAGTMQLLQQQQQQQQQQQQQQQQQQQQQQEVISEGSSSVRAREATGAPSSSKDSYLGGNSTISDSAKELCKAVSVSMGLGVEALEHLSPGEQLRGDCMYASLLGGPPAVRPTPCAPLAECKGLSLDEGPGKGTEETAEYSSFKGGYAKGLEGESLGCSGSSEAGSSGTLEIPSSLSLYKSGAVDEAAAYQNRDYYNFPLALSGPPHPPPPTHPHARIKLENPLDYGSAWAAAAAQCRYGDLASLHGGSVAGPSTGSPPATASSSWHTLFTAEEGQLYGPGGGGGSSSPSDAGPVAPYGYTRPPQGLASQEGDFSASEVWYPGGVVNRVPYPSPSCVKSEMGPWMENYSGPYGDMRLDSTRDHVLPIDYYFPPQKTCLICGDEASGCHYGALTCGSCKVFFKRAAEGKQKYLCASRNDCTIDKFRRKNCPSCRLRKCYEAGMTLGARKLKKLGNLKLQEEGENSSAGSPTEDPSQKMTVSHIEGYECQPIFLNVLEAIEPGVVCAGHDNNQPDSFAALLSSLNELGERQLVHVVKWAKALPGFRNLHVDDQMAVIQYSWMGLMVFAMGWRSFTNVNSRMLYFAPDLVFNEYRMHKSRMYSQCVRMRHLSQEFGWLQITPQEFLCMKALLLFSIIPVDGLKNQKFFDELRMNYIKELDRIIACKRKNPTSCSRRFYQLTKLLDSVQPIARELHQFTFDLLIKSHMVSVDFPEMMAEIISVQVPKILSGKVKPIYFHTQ
Experimental: Preparation of a rat AR fraction: Prostates were harvested into ice-cooled ET buffer (10 mM Tris, 1 mM EDTA, 5 mM DTT, 10 mM sodium molybdate, pH 7.4) 3 days after orchiectomy in 11-week-old male SD rats. The prostate was finely cut, and ET buffer was added, whereafter the mixture was homogenized using a homogenizer. The homogenate was ultracentrifuged (100,000×g, 60 min, 4° C.), and the supernatant was used as a rat AR fraction (hereinafter referred to as ARF).
Binding test: ^3H-testosterone (hereinafter referred to as ^3H-T) was diluted with ET buffer. Dihydrotestosterone (DHT) was prepared so as to have a final concentration of 1 μM which was 400 times the maximum concentration of ^3H-T (2.5 nM). The ^3H-T solution was added to a 1.5 ml tube containing DHT, no DHT, or various concentrations of a test compound. Further, 200 μg ARF was added to adjust the final volume to 100 μl. The mixture was incubated for 2 hours at 4° C., and then 300 μl of a 0.05% dextran T70-1.0% activated carbon solution was added. The mixture was further incubated for 15 minutes in ice to remove the free ^3H-T by adsorption. After centrifugation (4° C., 2,500 rpm, 5 min), 275 μl of the supernatant was harvested into a liquid scintillation vial, and 2 ml of Clear Sol was added. The mixture was stirred, allowed to stand, and measured for ^3H radioactivity with a liquid scintillation counter.
Calculation of the relative binding inhibition rate: The binding inhibition rate (%) of the compound according to the present invention was calculated from the following equation, and the 50% inhibition concentration (IC50) was calculated by the probit analysis of the concentration-binding inhibition curve.
The relative binding inhibition rate (RBA: Relative Binding Affinity) was determined from the following equation (Endocrinology 138, 863-870, 1997): RBA=100×(IC50 of hydroxyflutamide)/(IC50 of a compound of the present invention)

[4] = 100 mg/kg PO once daily, 5 days a week, 4 weeks

## COCC(=O)NCC(C)(C)[C@H]1Nc2ccc([N+](=O)[O-])cc2C2C=CC[C@H]21 (relative stereo) [Example 1, (3aR*,4S*,9bS*)-2-methoxy-N-[2-methyl-2-(8-nitro-3a,4,5,9b-tetrahydro-3H-cyclopenta[c]quinolin-4-yl)propyl]-1-acetamide]
[1]; 3 mg/kg sc once daily
  Femoral bone mineral density: 116 ± 6 mg/cm^2
  Weight of levator ani muscle: 56 ± 7 mg/100 g body weight
  Weight of prostate: 41 ± 8 mg/100 g body weight
[1]; 10 mg/kg sc once daily
  Femoral bone mineral density: 119 ± 3 mg/cm^2
  Weight of levator ani muscle: 65 ± 6 mg/100 g body weight
  Weight of prostate: 61 ± 10 mg/100 g body weight
[1]; 30 mg/kg sc
  Prostate weight as % of the level of the sham control group: about 80%
[1]; 30 mg/kg sc once daily
  Femoral bone mineral density: 122 ± 1 mg/cm^2
  Weight of levator ani muscle: 71 ± 4 mg/100 g body weight
  Weight of prostate: 82 ± 10 mg/100 g body weight
[2]; [4]
  Femoral bone mineral density: 135 ± 6 mg/cm^2
  Weight of levator ani muscle: 87 ± 5 mg/100 g body weight
  Weight of prostate: 117 ± 23 mg/100 g body weight
[2]; 100 mg/kg orally
  Prostate weight as % of the level of the sham control group: about 75%
[3]
  RBA (Relative Binding Affinity): 1076
